Measured values taken from US20220241402A1, “COMBINATION OF HEPATITIS B VIRUS (HBV) VACCINES AND QUINAZOLINE DERIVATIVES” (Janssen Sciences Ireland Unlimited Company, priority 2019, published 2022).

Experiments:
human TLR8 = biological target: T1, human TLR8 (Homo sapiens, UniProt Q9NR97); test: TLR8 cellular NFκB-luc reporter assay; type: cell-based; design: unit not given here; settings: lowest effective concentration; HEK293 cells transiently transfected with TLR8 and NFκB-luc, 6 h incubation
T1 construct: expressed in transfected cells; host or cells: HEK293
T1 sequence (Q9NR97 27-1041): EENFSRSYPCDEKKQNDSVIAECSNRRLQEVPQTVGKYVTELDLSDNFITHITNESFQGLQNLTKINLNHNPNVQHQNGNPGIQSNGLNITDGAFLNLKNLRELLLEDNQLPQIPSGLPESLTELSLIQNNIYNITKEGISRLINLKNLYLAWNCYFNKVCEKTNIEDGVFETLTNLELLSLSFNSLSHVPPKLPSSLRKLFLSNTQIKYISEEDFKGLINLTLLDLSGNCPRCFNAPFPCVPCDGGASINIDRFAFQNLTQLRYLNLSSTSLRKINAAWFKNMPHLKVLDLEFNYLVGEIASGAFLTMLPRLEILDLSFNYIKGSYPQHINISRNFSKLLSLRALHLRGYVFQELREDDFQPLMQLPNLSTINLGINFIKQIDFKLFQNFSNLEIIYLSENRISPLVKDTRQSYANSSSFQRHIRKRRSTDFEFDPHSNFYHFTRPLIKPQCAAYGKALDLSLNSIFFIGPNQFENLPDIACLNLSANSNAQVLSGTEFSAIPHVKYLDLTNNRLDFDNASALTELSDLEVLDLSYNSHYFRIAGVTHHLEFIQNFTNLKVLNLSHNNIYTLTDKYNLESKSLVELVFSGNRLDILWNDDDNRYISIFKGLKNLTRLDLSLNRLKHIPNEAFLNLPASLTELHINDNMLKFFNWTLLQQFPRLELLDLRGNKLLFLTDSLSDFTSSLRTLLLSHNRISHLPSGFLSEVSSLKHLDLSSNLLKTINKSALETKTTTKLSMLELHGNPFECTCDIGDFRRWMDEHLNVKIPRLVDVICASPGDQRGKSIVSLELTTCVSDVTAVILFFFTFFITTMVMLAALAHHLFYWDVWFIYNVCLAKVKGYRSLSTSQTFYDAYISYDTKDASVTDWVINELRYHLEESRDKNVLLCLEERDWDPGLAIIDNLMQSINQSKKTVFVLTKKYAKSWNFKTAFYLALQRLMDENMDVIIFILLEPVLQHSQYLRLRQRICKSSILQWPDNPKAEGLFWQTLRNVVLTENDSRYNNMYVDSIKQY
Method: (§1) The ability of compounds to activate human TLR7 and/or TLR8 was assessed in a cellular reporter assay using HEK293 cells transiently transfected with a TLR7 or TLR8 expression vector and NFκB-luc reporter construct. In one instance, the TLR expression construct expresses the respective wild type sequence or a mutant sequence comprising a deletion in the second leucine-rich repeat of the TLR.
(§2) HEK293 cells were grown in culture medium (DMEM supplemented with 10% FCS and 2 mM Glutamine). For transfection of cells in 10 cm dishes, cells were detached with Trypsin-EDTA, transfected with a mix of CMV-TLR7 or TLR8 plasmid (750 ng), NFκB-luc plasmid (375 ng) and a transfection reagent and incubated 24 h at 37° C. in a humidified 5% CO2 atmosphere. Transfected cells were then detached with Trypsin-EDTA, washed in PBS and re-suspended in medium to a density of 1.67×10^5 cells/mL. Thirty microliters of cells were then dispensed into each well in 384-well plates, where 10 μL of compound in 4% DMSO was already present. Following 6 h incubation at 37° C., 5% CO2, the luciferase activity was determined by adding 15 μl of STEADY LITE PLUS substrate (PERKIN ELMER) to each well and readout performed on a VIEWLUX ULTRAHTS microplate imager (PERKIN ELMER). Dose response curves were generated from measurements performed in quadruplicates. Lowest effective concentrations (LEC) values, defined as the concentration that induces an effect which is at least two-fold above the standard deviation of the assay, were determined for each compound.

human TLR7 = biological target: T2, human TLR7 (Homo sapiens, UniProt Q9NYK1); test: TLR7 cellular NFκB-luc reporter assay; type: cell-based; design: unit not given here; settings: lowest effective concentration; HEK293 cells transiently transfected with TLR7 and NFκB-luc, 6 h incubation
T2 construct: expressed in transfected cells; host or cells: HEK293
T2 sequence (Q9NYK1 27-1049): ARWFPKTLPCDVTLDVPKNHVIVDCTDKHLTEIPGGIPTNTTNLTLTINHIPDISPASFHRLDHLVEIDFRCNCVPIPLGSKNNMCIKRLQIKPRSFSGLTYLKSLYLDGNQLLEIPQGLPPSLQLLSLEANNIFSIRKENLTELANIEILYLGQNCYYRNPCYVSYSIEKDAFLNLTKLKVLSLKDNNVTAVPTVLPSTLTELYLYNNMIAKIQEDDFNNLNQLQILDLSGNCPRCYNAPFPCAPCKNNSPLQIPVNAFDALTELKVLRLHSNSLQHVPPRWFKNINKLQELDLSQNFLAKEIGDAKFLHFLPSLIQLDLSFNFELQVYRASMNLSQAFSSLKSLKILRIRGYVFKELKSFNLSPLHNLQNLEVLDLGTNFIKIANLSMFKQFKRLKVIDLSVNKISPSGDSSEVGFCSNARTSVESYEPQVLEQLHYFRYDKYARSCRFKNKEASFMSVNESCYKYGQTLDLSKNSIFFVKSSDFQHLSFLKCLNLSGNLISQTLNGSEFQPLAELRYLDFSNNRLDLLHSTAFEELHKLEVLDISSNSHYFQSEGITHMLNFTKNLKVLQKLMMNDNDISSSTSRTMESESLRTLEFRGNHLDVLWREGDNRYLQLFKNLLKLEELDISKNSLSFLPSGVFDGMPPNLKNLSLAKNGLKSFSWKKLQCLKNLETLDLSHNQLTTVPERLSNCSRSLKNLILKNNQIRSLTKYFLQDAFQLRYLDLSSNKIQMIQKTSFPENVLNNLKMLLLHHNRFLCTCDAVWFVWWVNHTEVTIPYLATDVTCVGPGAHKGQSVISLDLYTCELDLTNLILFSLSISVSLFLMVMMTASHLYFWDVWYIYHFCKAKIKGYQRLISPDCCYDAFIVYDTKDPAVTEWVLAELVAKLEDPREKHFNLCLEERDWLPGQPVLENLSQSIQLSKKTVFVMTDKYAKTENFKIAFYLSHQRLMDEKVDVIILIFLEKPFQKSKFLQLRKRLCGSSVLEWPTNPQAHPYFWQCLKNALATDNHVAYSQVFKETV
Method: as §1, §2

Row | Structure (SMILES) | hTLR8-wt (LEC) (human TLR8) | hTLR7-wt (LEC) (human TLR7)
1 | CCC[C@H](CO)Nc1nc(N)nc2c(F)cccc12 [Compound 108, (R)-2-((2-amino-8-fluoroquinazolin-4-yl)amino)pentan-1-ol] | 3.27 | >25
2 | CCCC[C@H](CO)Nc1nc(N)nc2cc(C(=O)OC)ccc12 [Compound 116, Methyl (R)-2-amino-4-((1-hydroxyhexan-2-yl)amino)quinazoline-7-carboxylate] | 0.57 | >100
3 | CCCC[C@H](CO)Nc1nc(N)nc2cc(F)ccc12 [Compound 111, (R)-2-((2-amino-7-fluoroquinazolin-4-yl)amino)hexan-1-ol] | 0.04 | 
4 | CCCC[C@H](CO)Nc1nc(N)nc2cccc(F)c12 [Compound 100, (R)-2-((2-amino-5-fluoroquinazolin-4-yl)amino)hexan-1-ol] | 0.07 | 27.7
5 | CCCC[C@H](CO)Nc1nc(N)nc2cccc(C3CC3)c12 [Compound 99, (R)-2-((2-amino-5-cyclopropylquinazolin-4-yl)amino)hexan-1-ol] | 0.35 | >100
6 | CCCC[C@H](CO)Nc1nc(N)nc2c(OC)cccc12 [Compound 115, (R)-2-((2-amino-8-methoxyquinazolin-4-yl)amino)hexan-1-ol] | 3.74 | >50
7 | CCCC[C@H](CO)Nc1nc(N)nc2cccc(Cl)c12 [Compound 113, (R)-2-((2-amino-5-chloroquinazolin-4-yl)amino)hexan-1-ol] |  | >100
8 | CSCC[C@H](CO)Nc1nc(N)nc2cccc(F)c12 [Compound 118, (R)-2-((2-amino-5-fluoroquinazolin-4-yl)amino)-4-(methylthio)butan-1-ol] | 0.7 | >50
9 | CCCC[C@H](CO)Nc1nc(N)nc2cccc(C)c12 [Compound 114, (R)-2-((2-amino-5-methylquinazolin-4-yl)amino)hexan-1-ol] |  | >100
10 | CCCC[C@H](CO)Nc1nc(N)nc2c(C)cccc12 [Compound 105, (R)-2-((2-amino-8-methylquinazolin-4-yl)amino)hexan-1-ol] | 0.46 | >25
11 | CCCC[C@H](CO)Nc1nc(N)nc2c(F)c(F)ccc12 [Compound 117, (R)-2-((2-amino-7,8-difluoroquinazolin-4-yl)amino)hexan-1-ol] | 0.41 | >100
12 | CCCC[C@H](CO)Nc1nc(N)nc2c(F)cccc12 [Compound 107, (R)-2-((2-amino-8-fluoroquinazolin-4-yl)amino)hexan-1-ol] | 0.11 | >25
13 | CCCC[C@H](CO)Nc1nc(N)nc2cc(-c3nnco3)ccc12 [Compound 103, (R)-2-((2-amino-7-(1,3,4-oxadiazol-2-yl)quinazolin-4-yl)amino)hexan-1-ol] | 0.38 | >25
14 | CCCC[C@H](CO)Nc1nc(N)nc2c(Cl)cccc12 [Compound 106, (R)-2-((2-amino-8-chloroquinazolin-4-yl)amino)hexan-1-ol] | 2.72 | >25
15 | CCCC[C@H](CO)Nc1nc(N)nc2cccc(C(F)(F)F)c12 [Compound 101, (R)-2-((2-amino-5-(trifluoromethyl)quinazolin-4-yl)amino)hexan-1-ol] | 0.66 | >100
16 | CCCC[C@H](COC(=O)C(C)C)Nc1nc(N)nc2c(C)cccc12 [Compound 109, (R)-2-((2-amino-8-methylquinazolin-4-yl)amino)hexyl isobutyrate] | 0.64 | >25
17 | CCCC[C@H](CO)Nc1nc(N)nc2cc(C#N)ccc12 [Compound 102, (R)-2-amino-4-((1-hydroxyhexan-2-yl)amino)quinazoline-7-carbonitrile] | 0.14 | >100
18 | CCC[C@H](CO)Nc1nc(N)nc2c(C)cccc12 [Compound 104, (R)-2-((2-amino-8-methylquinazolin-4-yl)amino)pentan-1-ol] | 5.75 | >25
19 | CC[C@H](C)[C@H](CO)Nc1nc(N)nc2cccc(F)c12 [Compound 119, (2R,3S)-2-((2-amino-5-fluoroquinazolin-4-yl)amino)-3-methylpentan-1-ol] | 0.09 | 1.71
